Experimental data from article PMC8151276, “An Integrated Approach toward NanoBRET Tracers for Analysis of GPCR Ligand Engagement” (Molecules, 2021).

Tests used:
OPRD1 = molecular target: T1, OPRD1 (Homo sapiens, UniProt P41143); experiment: NanoBRET screen HiBiT-OPRD1 in HEK293; format: binding
T1 construct: purchased Promega (in-house HiBiT-GPCR construct library, NanoBRET)
Experimental: (§1) Each tracer candidate was screened across the entire library of HiBiT-GPCR constructs using NanoBRET as the detection modality. As depicted in Figure 4A, the specificity of interactions was evaluated through decrease in BRET due to competitive displacement of a bound tracer by excess parental compound. Each tracer was analyzed for binding to each HiBiT-GPCR fusion in the absence and in the presence of competing parental compound. Briefly, HEK293 cells were transfected with HiBiT-GPCR constructs diluted into promoterless DNA to reduce expression and maximize translocation to the cell surface. Each tracer candidate was then screened at concentrations of 1 μM and 0.1 μM across cells expressing these fusions. Cells were treated for 1.5 h with tracer either alone or in the presence of 20 μM competing parental compound (i.e., control). BRET was measured upon addition of purified LgBiT and subsequent complementation with HiBiT genetically fused to a GPCR. The specificity of interactions was assessed through a decrease in BRET signal due to competitive displacement of the bound tracer. To further gauge the robustness of these interactions, the fold response over the control (i.e., BRETtracer/BRETcontrol) was calculated. We chose a 1.5-fold response, which translates to ≥7-fold signal over noise as the minimal threshold required to score an interaction as positive.
(§2) HiBiT-GPCR DNA constructs were diluted in 10 mM Tris pH 8 to a final concentration of 0.01 μg/μL, arrayed in 96-well plates and stored at −20 °C. For transfection, HEK293 cells were suspended in Opti-MEM (without phenol red) supplemented with 2% fetal bovine serum (Seradigm) and 100 units/mL penicillin–streptomycin (Gibco) at a final concentration of 220,000 cells/mL and dispensed into white 96-well plates at 90 μL/well. Subsequent transfections and screens were carried using an Agilent Bravo Automated Liquid Handling Platform. First, the 96-well HiBiT DNA arrays were diluted 25-fold in Opti-MEM (without serum or phenol red) to a final concentration of 0.0004 μg/μL and 20 μL of the diluted DNAs were transferred into new 96-well plates. Next, promoterless carrier DNA (1 μg/μL) was diluted 25-fold (0.04 μg/μL) and then dispensed into the diluted arrays at 20 μL/well. Following brief mixing, Viafect transfection reagent (Promega) diluted 16-fold into Opti-MEM was dispensed into the plates at 40 μL/well. After mixing by pipetting, plates were incubated for 10 min on the pipetting station deck. The DNA-transfection reagent complexes were then added to plates containing cells. To facilitate the screen, 10 μL of DNA-transfection reagent complexes were added in duplicates to the top 4 and bottom 4 rows, resulting in two identical 48-well arrays per plate. Plates with transfected cells were incubated for 18–20 h at 37 °C/5% CO2. A screen of each tracer across the entire library using two different concentrations requires duplicate plates of transfected cells. Depending on the number of tracers being screened, transfections can be scaled up using the same ratios. The next day, for each tracer, four 20× screening solutions in tracer dilution buffer (Promega) were prepared: two duplicates at final concentration of 20 μM and two duplicates at a final concentration of 2 μM. […] The four resulting solutions were diluted 4-fold in Opti-MEM without serum or phenol red to generate 5× solutions (5 µM and 0.5 µM tracer +/− 100 μM competing compound). To screen the library, a BioTek MultiFlo FX liquid dispenser was used to dispense 22.5 µL of tracer solution to the top 4 rows and 22.5 µL tracer + competing compound solution to the 4 bottom rows. Plates were briefly mixed on an orbital shaker and incubated for 1.5 h at room temperature. […] Plates were briefly mixed on an orbital shaker and incubated for 15 min to allow complementation.

MC5R = molecular target: T2, MC5R (Homo sapiens, UniProt P33032); experiment: NanoBRET screen HiBiT-MC5R in HEK293; format: binding
T2 construct: purchased Promega (in-house HiBiT-GPCR construct library, NanoBRET)
T2 sequence (P33032 whole entry): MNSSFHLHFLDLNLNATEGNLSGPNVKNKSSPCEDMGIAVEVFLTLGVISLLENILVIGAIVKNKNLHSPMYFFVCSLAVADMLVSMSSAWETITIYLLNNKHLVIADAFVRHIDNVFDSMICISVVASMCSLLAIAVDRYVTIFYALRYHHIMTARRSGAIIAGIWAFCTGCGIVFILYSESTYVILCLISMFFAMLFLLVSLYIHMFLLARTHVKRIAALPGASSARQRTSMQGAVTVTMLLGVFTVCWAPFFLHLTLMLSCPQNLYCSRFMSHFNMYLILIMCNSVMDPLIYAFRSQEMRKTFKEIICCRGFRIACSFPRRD
Experimental: as §1, §2

T1 sequence (P41143 whole entry): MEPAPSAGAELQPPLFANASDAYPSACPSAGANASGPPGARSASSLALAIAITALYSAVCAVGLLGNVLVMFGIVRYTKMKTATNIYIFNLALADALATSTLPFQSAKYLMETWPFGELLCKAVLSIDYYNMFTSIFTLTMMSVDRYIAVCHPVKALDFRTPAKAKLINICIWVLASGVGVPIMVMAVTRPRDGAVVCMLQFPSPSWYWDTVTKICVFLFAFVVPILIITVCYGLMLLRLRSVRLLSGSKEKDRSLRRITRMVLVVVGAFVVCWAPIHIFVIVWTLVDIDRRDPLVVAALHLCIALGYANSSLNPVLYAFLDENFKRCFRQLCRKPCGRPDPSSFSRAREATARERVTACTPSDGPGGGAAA

Compound | NanoBRET Fold Response (OPRD1; OPRD1, tracer 0.1μM) | NanoBRET Fold Response (OPRD1; OPRD1, tracer 1μM) | NanoBRET Fold Response (MC5R; MC5R, tracer 1μM) | NanoBRET Fold Response (MC5R; MC5R, tracer 0.1μM) | other results
CN1CCN(C2=Nc3cc(Cl)ccc3Nc3ccc(CNC(=O)CCOCCOCCOCCOCCNC(=O)CCc4ccc5n4[B-](F)(F)[N+]4=C(c6ccc[nH]6)C=CC4=C5)cc32)CC1 [Clozapine-b-2-NB590] |  |  |  |  | NanoBRET Fold Response (OPRD1; OPRD1, 0.1μM tracer): 1.02; NanoBRET Fold Response (OPRD1; OPRD1, 1μM tracer): 0.99; NanoBRET Fold Response (MC5R; MC5R, 0.1μM tracer): 1.05; NanoBRET Fold Response (MC5R; MC5R, 1μM tracer): 1.04
CN(C)CCC=C1c2ccccc2CCc2ccc(C(=O)NCCNC(=O)CCOCCOCCOCCOCCNC(=O)CCc3ccc4n3[B-](F)(F)[N+]3=C(c5ccc[nH]5)C=CC3=C4)cc21 [Amitriptyline-b-2-NB590] |  |  |  |  | NanoBRET Fold Response (OPRD1; tracer at 0.1μM, listed as amitriptyline-b-2-NB590): 1.01; NanoBRET Fold Response (OPRD1; tracer at 1μM, listed as amitriptyline-b-2-NB590): 1.01; NanoBRET Fold Response (MC5R; tracer at 0.1μM): 1.02; NanoBRET Fold Response (MC5R; tracer at 1μM): 1.00
CCOC(=O)c1cc(C#N)c(N2CCC(C(=O)NS(=O)(=O)Cc3ccccc3/C=C/C(=O)NCCNC(=O)CCc3ccc4n3[B-](F)(F)[N+]3=C(c5ccc[nH]5)C=CC3=C4)CC2)nc1C [AZD1283-1-NB590] |  |  |  |  | NanoBRET Fold Response (OPRD1; OPRD1, 0.1μM): 1.09; NanoBRET Fold Response (OPRD1; OPRD1, 1μM): 1.08; NanoBRET Fold Response (MC5R; MC5R, 1μM): 0.99
CC(C)N(CC[C@H](c1ccccc1)c1cc(CCNC(=O)CCOCCOCCOCCOCCNC(=O)CCc2ccc3n2[B-](F)(F)[N+]2=C(c4ccc[nH]4)C=CC2=C3)ccc1O)C(C)C [Tolterodine-2-NB590] | 1.00 | 0.94 | 0.91 |  | 
CC(C)N(CC[C@H](c1ccccc1)c1cc(CCNC(=O)c2ccc(CNC(=O)CCc3ccc4n3[B-](F)(F)[N+]3=C(c5ccc[nH]5)C=CC3=C4)cc2)ccc1O)C(C)C [Tolterodine-BZ-NB590] | 1.06 | 1.05 | 1.02 | 1.02 | 
O=C(CCOCCOCCOCCOCCNC(=O)CCc1ccc2n1[B-](F)(F)[N+]1=C(c3ccc[nH]3)C=CC1=C2)NCCCN1CCN(C2=Nc3ccccc3Oc3ccc(Cl)cc32)CC1 [Loxapine-a-2-NB590] | 1.01 | 1.04 |  | 1.04 | 
CN1CCN(C2=Nc3cc(Cl)ccc3N(CC(=O)NCCOCCOCCOCCOCCNC(=O)CCc3ccc4n3[B-](F)(F)[N+]3=C(c5ccc[nH]5)C=CC3=C4)c3ccccc32)CC1 [Clozapine-c-2-NB590] |  |  |  |  | NanoBRET Fold Response (OPRD1; OPRD1, 0.1μM tracer): 0.99; NanoBRET Fold Response (OPRD1; OPRD1, 1μM tracer): 0.92; NanoBRET Fold Response (MC5R; MC5R, 0.1μM tracer): 1.01; NanoBRET Fold Response (MC5R; MC5R, 1μM tracer): 1.06
CN(C)CCC=C1c2ccccc2CCc2ccc(C(=O)NCCNC(=O)CCOCCOCCOCCOCCNC(=O)CCc3ccc4n3[B-](F)(F)[N+]3=C(c5ccc[nH]5)C=CC3=C4)cc21 [Amitriptyline-a-2-NB590] |  |  |  |  | NanoBRET Fold Response (OPRD1; tracer at 0.1μM): 0.99; NanoBRET Fold Response (OPRD1; tracer at 1μM): 0.91
Cc1nc2n(c(=O)c1CCN1CCC(c3noc4cc(F)ccc34)CC1)CCCC2OC(=O)NCCOCCOCCOCCOCCNC(=O)CCc1ccc2n1[B-](F)(F)[N+]1=C(c3ccc[nH]3)C=CC1=C2 (stereo not drawn) [Risperidone-2-NB590] | 0.99 | 0.99 | 1.02 | 1.02 | 
COc1ccc2[nH]c(-c3ccc(CNC(=O)CCOCCOCCOCCOCCNC(=O)CCc4ccc5n4[B-](F)(F)[N+]4=C(c6ccc[nH]6)C=CC4=C5)cc3)c(CCNC(C)=O)c2n1 [AzomelatoninICO9-2-NB590] |  |  |  |  | NanoBRET Fold Response (OPRD1; 0.1μM tracer): 1.06; NanoBRET Fold Response (OPRD1; 1μM tracer): 1.03; NanoBRET Fold Response (MC5R; 0.1μM tracer): 0.94; NanoBRET Fold Response (MC5R; 1μM tracer): 0.97
COc1ccccc1N1CCN(CCCCN2C(=O)c3ccc(CNC(=O)CCOCCOCCOCCOCCNC(=O)CCc4ccc5n4[B-](F)(F)[N+]4=C(c6ccc[nH]6)C=CC4=C5)cc3C2=O)CC1 [NAN-190-2-NB590] | 0.98 |  | 1.01 | 0.98 | 
O=C(CCc1ccc2n1[B-](F)(F)[N+]1=C(c3ccc[nH]3)C=CC1=C2)NCCOCCOCCNC(=O)OCCOCCN1CCN(C2=Nc3ccccc3Sc3ccccc32)CC1 [Quetiapine-a-2-NB590] | 1.11 | 0.89 | 1.09 | 0.97 | 
O=C(CCOCCOCCOCCOCCNC(=O)CCc1ccc2n1[B-](F)(F)[N+]1=C(c3ccc[nH]3)C=CC1=C2)NCCCN1CCN(C2=Nc3cc(Cl)ccc3Nc3ccccc32)CC1 [Clozapine-a-2-NB590] |  |  |  |  | NanoBRET Fold Response (OPRD1; OPRD1, 0.1μM tracer): 1.04; NanoBRET Fold Response (OPRD1; OPRD1, 1μM tracer): 0.95; NanoBRET Fold Response (MC5R; MC5R, 0.1μM tracer): 1.04
N#CN=C(NCCCOc1cccc(CN2CCCCC2)c1)NCCNC(=O)CCOCCOCCOCCOCCNC(=O)CCc1ccc2n1[B-](F)(F)[N+]1=C(c3ccc[nH]3)C=CC1=C2 [Aminopotentidine-2-NB590] | 1.05 | 1.02 | 0.94 | 1.01 | 
O=C(CCc1ccc2n1[B-](F)(F)[N+]1=C(c3ccc[nH]3)C=CC1=C2)NCc1ccc(C(=O)NCCOCCOCCNCC(O)COc2cccc3ccccc23)cc1 (stereo not drawn) [Propranolol-3-NB590] |  |  |  |  | NanoBRET Fold Response (OPRD1; OPRD1, 0.1μM): 0.97; NanoBRET Fold Response (OPRD1; OPRD1, 1μM): 1.01; NanoBRET Fold Response (MC5R; MC5R, 0.1μM): 1.00; NanoBRET Fold Response (MC5R; MC5R, 1μM): 0.98
O=C(CCc1ccc2n1[B-](F)(F)[N+]1=C(c3ccc[nH]3)C=CC1=C2)NCc1ccc(C(=O)NCCOCCC(=O)N[C@@H]2CC[C@@]3(O)[C@H]4Cc5ccc(O)c6c5[C@@]3(CCN4CC3CC3)[C@H]2O6)cc1 [Naltrexone-3-NB590] | 1.81 | 1.52 | 1.04 |  | 
COc1ccccc1N1CCN(CCCCN2C(=O)c3ccc(CNC(=O)CCOCCNC(=O)c4ccc(CNC(=O)CCc5ccc6n5[B-](F)(F)[N+]5=C(c7ccc[nH]7)C=CC5=C6)cc4)cc3C2=O)CC1 [NAN-190-3-NB590] | 0.79 | 1.17 | 0.96 | 0.97 | 
Cc1cc2c(s1)Nc1ccccc1N=C2N1CCN(CCCNC(=O)CCOCCOCCOCCOCCNC(=O)CCc2ccc3n2[B-](F)(F)[N+]2=C(c4ccc[nH]4)C=CC2=C3)CC1 [Olanzapine-a-2-NB590] | 0.95 | 1.09 | 1.04 | 0.99 | 
CCCn1c(=O)c2[nH]c(-c3ccc(OCC(=O)NCCNC(=O)CCOCCNC(=O)c4ccc(CNC(=O)CCc5ccc6n5[B-](F)(F)[N+]5=C(c7ccc[nH]7)C=CC5=C6)cc4)cc3)nc2n(CCC)c1=O [XAC-3-NB590] | 0.97 | 0.81 | 0.98 | 1.02 | 
N#CN/C(=N\CCNC(=O)c1ccc(N)cc1)NCCCOc1cccc(CN2CCCCC2)c1 [Aminopotentidine (unmodified)] |  |  |  |  | NanoBRET Fold Response (OPRD1; OPRD1, other tracers/Aminopotentidine (unmodified), 0.1μM): 1.25; NanoBRET Fold Response (OPRD1; OPRD1, other tracers/Aminopotentidine (unmodified), 1μM): 1.01
CN(CCC=C1c2ccccc2CCc2ccccc21)C(=O)CCOCCOCCOCCOCCNC(=O)CCc1ccc2n1[B-](F)(F)[N+]1=C(c3ccc[nH]3)C=CC1=C2 [Amitriptyline-e-2-NB590] |  |  |  |  | NanoBRET Fold Response (OPRD1; tracer at 1μM): 1.01
COc1ccc2c(n1)c(CCNC(C)=O)cn2CCNC(=O)CCc1ccc2n1[B-](F)(F)[N+]1=C(c3ccc[nH]3)C=CC1=C2 [Azamelatonin-1-NB590] |  |  |  |  | NanoBRET Fold Response (OPRD1; 0.1μM tracer): 1.00; NanoBRET Fold Response (OPRD1; 1μM tracer): 1.00; NanoBRET Fold Response (MC5R; 0.1μM tracer): 1.01; NanoBRET Fold Response (MC5R; 1μM tracer): 1.04
